IC50 data for one molecule are collected here from patent US20220073525A1, “COMPOSITIONS FOR INHIBITING UBIQUITIN SPECIFIC PROTEASE 1” (FORMA Therapeutics, Inc., priority 2019, published 2022).

This assay deals with USP1 (Homo sapiens, UniProt O94782). The assay can be described thus: Biochemical Assay for USP1 Inhibition (Ub-Rho 110 fluorescence). Conditions: Table 6, additional compounds; 30 min preincubation, Enzyme 0.025 nM, Substrate Ub-Rho 110 25 nM; read-out: IC50. In short, it runs like this: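 USP1 at 0.025 nM, preincubated 30 min with compound (25 μM to 1.3 nM, 10-point), then Ub-Rho 110 at 25 nM (<<Km) in Tris-HCl pH 8.0, 1 mM GSH, 0.03% BGG, 0.01% Triton X-100. Fluorescence read kinetically over 11 min; % inhibition versus no-enzyme and DMSO controls, IC50 from 4-parameter logistic fit.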
USP1, sequence (O94782 whole entry): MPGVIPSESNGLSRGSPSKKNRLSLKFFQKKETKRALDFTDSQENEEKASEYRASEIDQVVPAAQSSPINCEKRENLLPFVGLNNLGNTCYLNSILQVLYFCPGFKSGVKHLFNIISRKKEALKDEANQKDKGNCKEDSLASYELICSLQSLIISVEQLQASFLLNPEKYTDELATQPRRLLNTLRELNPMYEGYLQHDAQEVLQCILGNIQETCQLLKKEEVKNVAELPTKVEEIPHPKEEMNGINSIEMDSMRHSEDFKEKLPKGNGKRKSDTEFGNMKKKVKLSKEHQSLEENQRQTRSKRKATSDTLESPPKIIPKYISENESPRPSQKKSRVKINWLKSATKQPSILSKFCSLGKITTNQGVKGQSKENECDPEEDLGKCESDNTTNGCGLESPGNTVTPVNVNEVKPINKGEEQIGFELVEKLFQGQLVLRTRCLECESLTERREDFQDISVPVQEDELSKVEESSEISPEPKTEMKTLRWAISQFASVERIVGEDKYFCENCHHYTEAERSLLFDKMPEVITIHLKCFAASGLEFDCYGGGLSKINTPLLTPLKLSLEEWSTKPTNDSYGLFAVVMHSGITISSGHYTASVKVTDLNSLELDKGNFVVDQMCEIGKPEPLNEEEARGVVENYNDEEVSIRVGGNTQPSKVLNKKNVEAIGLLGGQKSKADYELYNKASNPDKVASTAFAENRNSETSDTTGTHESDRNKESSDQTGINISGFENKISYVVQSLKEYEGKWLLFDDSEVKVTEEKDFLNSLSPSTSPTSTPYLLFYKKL
USP1, sequence (Q8TAF3 whole entry partner): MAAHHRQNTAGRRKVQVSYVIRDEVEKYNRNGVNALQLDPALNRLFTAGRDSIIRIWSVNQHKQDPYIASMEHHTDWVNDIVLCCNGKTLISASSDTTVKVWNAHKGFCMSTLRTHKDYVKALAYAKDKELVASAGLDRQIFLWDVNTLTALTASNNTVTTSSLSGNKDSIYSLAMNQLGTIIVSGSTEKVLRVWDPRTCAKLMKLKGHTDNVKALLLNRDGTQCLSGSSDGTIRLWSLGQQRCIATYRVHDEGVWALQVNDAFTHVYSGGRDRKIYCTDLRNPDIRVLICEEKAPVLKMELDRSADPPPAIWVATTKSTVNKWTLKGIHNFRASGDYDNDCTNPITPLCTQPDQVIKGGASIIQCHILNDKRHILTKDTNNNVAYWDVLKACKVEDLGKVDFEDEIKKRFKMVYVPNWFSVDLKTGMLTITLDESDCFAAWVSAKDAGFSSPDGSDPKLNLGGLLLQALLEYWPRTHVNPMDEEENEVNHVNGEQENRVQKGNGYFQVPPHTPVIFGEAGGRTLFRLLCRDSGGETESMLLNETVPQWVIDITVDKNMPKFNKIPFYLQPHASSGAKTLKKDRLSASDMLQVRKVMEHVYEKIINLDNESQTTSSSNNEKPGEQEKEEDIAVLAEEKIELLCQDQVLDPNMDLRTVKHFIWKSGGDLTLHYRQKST

The term IC50 denotes the midpoint of a concentration-inhibition curve. As to `Cc1nc(-c2cccnc2C(C)C)c2n1CCN(C(=O)c1ccc(-c3ccnn3C(C)C)nc1)C2` [Compound C-6, 3-(3-methyl-7-{6-[1-(propan-2-yl)-1H-pyrazol-5-yl]pyridine-3-carbonyl}-5H,6H,7H,8H-imidazo[1,5-a]pyrazin-1-yl)-2-(propan-2-yl)pyridine], the IC50 is over 25 µM.
